Reference: ChEMBL document CHEMBL1909046, “DrugMatrix in vitro pharmacology data”

Assays:
[1] = DRUGMATRIX: Phorbol Ester radioligand binding (ligand: [3H] PDBu); format: cell membranes, Mus musculus, ICR, Brain, Membrane; settings: Not Active = under 50% inhibition at 10 µM
[2] = biological target: Prostaglandin G/H synthase 1 (Homo sapiens, UniProt P23219); assay: biochemical; format: tissue-based, Platelet; settings: platelet;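 note: inhibition of COX-1 enzyme activity, with arachidonic acid supplied as substrate; in other assays of this panel Not Active means under 50% inhibition at 10 µM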
[3] = biological target: T1, Amine oxidase [flavin-containing] A (Homo sapiens, UniProt P21397); assay: DRUGMATRIX: Monoamine Oxidase MAO-A enzyme inhibition (substrate: Kynuramine); set-up: species or system BTI-TN-5B1-4; settings: bti-tn-5b1-4; Not Active = under 50% inhibition at 10 µM
T1 sequence (P21397 whole entry): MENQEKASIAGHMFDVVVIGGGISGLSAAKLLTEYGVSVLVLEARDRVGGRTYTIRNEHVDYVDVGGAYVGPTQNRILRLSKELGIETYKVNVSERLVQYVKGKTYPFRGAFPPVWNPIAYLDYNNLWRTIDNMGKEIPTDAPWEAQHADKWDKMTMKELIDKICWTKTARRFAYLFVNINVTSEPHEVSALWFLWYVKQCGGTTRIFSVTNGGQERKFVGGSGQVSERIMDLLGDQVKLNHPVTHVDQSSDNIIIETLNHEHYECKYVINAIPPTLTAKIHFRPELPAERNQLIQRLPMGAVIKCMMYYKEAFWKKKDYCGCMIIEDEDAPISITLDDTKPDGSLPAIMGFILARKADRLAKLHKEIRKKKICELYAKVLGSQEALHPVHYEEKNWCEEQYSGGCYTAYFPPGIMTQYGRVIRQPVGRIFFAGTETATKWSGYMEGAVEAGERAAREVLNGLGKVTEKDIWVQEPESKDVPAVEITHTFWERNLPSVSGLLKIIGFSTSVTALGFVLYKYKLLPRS

[4] = biological target: Cytochrome P450 2C19 (Homo sapiens, UniProt P33261); settings: bti-tn-5b1-4; note: in other assays of this panel Not Active means under 50% inhibition at 10 µM
[5] = biological target: Mitogen-activated protein kinase 14 (Homo sapiens, UniProt Q16539); set-up: species or system Escherichia coli;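 note: inhibition of p38alpha enzyme activity in a biochemical kinase assay, with myelin basic protein serving as substrate; in other assays of this panel Not Active means under 50% inhibition at 10 µM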
[6] = biological target: T2, Alpha-1A adrenergic receptor (Rattus norvegicus, UniProt P43140); assay: DRUGMATRIX: Alpha-1A adrenergic receptor radioligand binding (ligand: prazosin); format: cell membranes, Wistar, Submaxillary gland, Membrane; settings: Not Active = under 50% inhibition at 10 µM
T2 sequence (P43140 whole entry): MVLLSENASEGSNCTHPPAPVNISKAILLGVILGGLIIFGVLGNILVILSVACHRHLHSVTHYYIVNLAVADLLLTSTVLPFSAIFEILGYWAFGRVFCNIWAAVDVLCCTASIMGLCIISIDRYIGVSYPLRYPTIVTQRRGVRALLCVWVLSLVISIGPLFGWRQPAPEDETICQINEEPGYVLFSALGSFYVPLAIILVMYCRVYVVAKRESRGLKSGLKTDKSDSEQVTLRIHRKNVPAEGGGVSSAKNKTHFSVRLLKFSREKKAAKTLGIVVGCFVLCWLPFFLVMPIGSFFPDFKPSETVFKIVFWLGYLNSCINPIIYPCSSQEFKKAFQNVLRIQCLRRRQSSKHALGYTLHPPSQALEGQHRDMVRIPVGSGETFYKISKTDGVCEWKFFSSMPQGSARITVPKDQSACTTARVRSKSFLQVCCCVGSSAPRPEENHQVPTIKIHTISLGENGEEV

[7] = biological target: Tyrosine-protein kinase Lck (Homo sapiens, UniProt P06239); assay: DRUGMATRIX: Protein Tyrosine Kinase, LCK enzyme inhibition (substrate: Poly(Glu:Tyr)); format: cell-based, Insect cells; settings: insect cells; Not Active = under 50% inhibition at 10 µM
[8] = DRUGMATRIX: Serotonin (5-Hydroxytryptamine) 5-HT3 radioligand binding (ligand: [3H] GR-65630); format: cell membranes, Membrane; settings: hek293; Not Active = under 50% inhibition at 10 µM
[9] = biological target: T3, Neuropeptide Y receptor type 2 (Homo sapiens, UniProt P49146); format: cell membranes, Membrane; settings: kan-ts; note: in other assays of this panel Not Active means under 50% inhibition at 10 µM
T3 sequence (P49146 whole entry): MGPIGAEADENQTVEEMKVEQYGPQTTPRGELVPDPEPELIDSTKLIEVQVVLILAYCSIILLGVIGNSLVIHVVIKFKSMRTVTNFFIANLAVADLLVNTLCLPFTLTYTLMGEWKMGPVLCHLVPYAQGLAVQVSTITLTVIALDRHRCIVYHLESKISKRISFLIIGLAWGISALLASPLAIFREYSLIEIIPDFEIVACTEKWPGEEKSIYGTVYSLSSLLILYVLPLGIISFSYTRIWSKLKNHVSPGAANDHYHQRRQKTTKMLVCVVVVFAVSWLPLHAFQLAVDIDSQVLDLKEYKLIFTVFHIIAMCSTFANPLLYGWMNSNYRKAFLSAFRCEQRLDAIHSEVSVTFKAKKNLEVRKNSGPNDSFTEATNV

[10] = biological target: T4, Caspase-1 (Homo sapiens, UniProt P29466); set-up: species or system Escherichia coli
T4 sequence (P29466 whole entry): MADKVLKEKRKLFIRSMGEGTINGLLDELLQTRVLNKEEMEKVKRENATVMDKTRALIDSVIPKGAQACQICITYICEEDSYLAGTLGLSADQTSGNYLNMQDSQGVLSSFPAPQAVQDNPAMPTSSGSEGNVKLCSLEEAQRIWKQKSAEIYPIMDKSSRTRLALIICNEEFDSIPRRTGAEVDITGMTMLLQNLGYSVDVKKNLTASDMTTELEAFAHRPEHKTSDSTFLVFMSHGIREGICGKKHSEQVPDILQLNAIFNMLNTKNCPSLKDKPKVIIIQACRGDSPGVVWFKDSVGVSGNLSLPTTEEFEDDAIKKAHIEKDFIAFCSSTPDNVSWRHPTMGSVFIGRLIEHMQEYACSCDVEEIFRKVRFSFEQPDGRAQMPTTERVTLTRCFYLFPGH

[11] = biological target: T5, B2 bradykinin receptor (Homo sapiens, UniProt P30411); format: cell membranes, Membrane; settings: chem-1; note: in other assays of this panel Not Active means under 50% inhibition at 10 µM
T5 sequence (P30411 whole entry): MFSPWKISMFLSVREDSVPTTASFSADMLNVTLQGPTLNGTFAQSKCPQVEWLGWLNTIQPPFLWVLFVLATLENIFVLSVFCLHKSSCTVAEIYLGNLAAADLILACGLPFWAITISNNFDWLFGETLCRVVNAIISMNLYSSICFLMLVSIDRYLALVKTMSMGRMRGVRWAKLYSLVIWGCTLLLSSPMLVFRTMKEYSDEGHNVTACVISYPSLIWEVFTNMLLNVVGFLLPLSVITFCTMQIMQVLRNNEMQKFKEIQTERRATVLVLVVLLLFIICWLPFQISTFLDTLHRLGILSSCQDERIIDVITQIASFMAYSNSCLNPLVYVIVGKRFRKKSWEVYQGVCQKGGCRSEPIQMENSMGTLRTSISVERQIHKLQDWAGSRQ

[12] = biological target: 5-hydroxytryptamine receptor 2B (Homo sapiens, UniProt P41595); format: cell membranes, CHO-K1, Membrane; settings: cho-k1; note: in other assays of this panel Not Active means under 50% inhibition at 10 µM
[13] = DRUGMATRIX: GABAA, Chloride Channel, TBOB radioligand binding (ligand: [3H] TBOB); format: cell membranes, Rattus norvegicus, Wistar, Cerebral cortex, Membrane; settings: Not Active = under 50% inhibition at 10 µM

Chain of Cytochrome P450 2C19 (P33261 whole entry): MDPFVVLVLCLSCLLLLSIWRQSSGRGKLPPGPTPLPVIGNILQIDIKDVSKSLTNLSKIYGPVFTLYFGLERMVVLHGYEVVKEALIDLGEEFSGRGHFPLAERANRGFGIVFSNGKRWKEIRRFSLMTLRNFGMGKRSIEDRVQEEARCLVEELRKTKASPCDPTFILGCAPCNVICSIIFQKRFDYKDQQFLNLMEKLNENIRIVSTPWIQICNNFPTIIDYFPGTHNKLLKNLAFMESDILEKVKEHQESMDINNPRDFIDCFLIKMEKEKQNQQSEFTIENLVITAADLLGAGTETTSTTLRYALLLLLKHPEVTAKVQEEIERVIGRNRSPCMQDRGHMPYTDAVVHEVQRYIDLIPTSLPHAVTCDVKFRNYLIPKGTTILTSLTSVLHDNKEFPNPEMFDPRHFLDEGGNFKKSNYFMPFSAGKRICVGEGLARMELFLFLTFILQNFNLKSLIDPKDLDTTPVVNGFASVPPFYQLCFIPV
Chain of 5-hydroxytryptamine receptor 2B (P41595 whole entry): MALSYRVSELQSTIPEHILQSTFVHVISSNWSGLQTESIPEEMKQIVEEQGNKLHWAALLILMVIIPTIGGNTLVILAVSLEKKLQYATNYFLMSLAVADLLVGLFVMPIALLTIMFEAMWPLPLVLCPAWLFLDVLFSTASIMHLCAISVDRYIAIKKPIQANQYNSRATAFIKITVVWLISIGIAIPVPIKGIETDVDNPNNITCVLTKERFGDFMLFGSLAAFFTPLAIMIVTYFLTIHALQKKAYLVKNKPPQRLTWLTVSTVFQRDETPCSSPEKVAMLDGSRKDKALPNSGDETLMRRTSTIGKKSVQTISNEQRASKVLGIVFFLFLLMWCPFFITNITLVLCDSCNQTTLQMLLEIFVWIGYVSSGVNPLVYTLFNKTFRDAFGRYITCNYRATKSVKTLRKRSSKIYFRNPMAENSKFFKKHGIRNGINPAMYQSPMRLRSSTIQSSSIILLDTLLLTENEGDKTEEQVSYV
Chain of Tyrosine-protein kinase Lck (P06239 whole entry): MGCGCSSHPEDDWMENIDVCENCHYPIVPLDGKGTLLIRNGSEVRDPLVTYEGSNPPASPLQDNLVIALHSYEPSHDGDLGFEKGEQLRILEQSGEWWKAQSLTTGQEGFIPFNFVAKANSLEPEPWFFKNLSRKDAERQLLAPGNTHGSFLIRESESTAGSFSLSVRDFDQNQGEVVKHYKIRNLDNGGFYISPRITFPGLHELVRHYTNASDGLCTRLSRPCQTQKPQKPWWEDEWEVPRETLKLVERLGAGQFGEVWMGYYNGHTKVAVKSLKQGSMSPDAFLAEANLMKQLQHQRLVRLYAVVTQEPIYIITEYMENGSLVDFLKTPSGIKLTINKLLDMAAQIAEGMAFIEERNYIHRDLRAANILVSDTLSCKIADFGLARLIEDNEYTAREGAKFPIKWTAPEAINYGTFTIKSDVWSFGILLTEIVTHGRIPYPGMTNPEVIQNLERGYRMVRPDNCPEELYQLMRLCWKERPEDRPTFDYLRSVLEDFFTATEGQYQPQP
Chain of Mitogen-activated protein kinase 14 (Q16539 whole entry): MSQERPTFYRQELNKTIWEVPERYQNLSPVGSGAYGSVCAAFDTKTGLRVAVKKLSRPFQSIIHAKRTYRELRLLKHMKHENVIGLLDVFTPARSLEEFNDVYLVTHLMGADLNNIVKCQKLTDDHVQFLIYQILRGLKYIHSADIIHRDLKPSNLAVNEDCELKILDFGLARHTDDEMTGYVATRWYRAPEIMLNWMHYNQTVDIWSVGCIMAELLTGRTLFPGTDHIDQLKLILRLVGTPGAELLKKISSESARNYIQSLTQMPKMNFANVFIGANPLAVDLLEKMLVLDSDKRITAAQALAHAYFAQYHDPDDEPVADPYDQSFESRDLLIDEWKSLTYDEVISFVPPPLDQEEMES
Chain of Prostaglandin G/H synthase 1 (P23219 whole entry): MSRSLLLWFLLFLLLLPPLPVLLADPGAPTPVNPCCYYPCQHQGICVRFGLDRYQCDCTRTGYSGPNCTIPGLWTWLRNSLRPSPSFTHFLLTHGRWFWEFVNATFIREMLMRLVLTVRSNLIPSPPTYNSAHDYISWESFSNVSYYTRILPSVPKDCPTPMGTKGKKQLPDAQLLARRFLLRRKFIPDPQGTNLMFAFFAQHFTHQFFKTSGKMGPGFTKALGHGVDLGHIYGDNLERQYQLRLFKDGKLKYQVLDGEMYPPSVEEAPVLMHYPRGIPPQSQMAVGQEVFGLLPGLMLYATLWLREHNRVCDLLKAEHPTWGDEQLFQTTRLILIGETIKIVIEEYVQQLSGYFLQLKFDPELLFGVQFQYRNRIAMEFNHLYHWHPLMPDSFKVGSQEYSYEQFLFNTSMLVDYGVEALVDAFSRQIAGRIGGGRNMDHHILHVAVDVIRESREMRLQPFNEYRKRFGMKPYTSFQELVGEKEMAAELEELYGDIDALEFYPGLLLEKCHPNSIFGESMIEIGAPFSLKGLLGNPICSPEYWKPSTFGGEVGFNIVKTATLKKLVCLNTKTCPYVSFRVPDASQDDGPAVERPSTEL

Cc1c(-c2ccccc2)oc2c(C(=O)OCCN3CCCCC3)cccc2c1=O [FLAVOXATE]
Not Active: IC50 [1] | Ki [1] | IC50 [2] | IC50 [3] | IC50 [4] | Ki [4] | IC50 [5] | IC50 [6] | IC50 [7] | IC50 [8] | Ki [8] | IC50 [9] | IC50 [10] | IC50 [11] | IC50 [12] | IC50 [13] | Ki [13]

CC(=O)[C@@]1(O)CC[C@H]2[C@@H]3C[C@H](C)C4=CC(=O)C=C[C@]4(C)[C@@]3(F)[C@@H](O)C[C@@]21C [FLUOROMETHOLONE]
Not Active: IC50 [1] | Ki [1] | IC50 [2] | IC50 [3] | IC50 [4] | Ki [4] | IC50 [5] | IC50 [6] | IC50 [7] | IC50 [8] | Ki [8] | IC50 [9] | IC50 [10] | IC50 [11] | IC50 [12] | IC50 [13] | Ki [13]

O=c1[nH]cc(F)c(=O)[nH]1 [FLUOROURACIL]
Not Active: IC50 [1] | Ki [1] | IC50 [2] | IC50 [3] | IC50 [4] | Ki [4] | IC50 [5] | IC50 [6] | IC50 [7] | IC50 [8] | Ki [8] | IC50 [9] | IC50 [10] | IC50 [11] | IC50 [12] | IC50 [13] | Ki [13]

CC(C)n1c(/C=C/C(O)CC(O)CC(=O)O)c(-c2ccc(F)cc2)c2ccccc21 (stereo unspecified) [FLUVASTATIN]
Not Active: IC50 [1] | Ki [1] | IC50 [2] | IC50 [3] | IC50 [4] | Ki [4] | IC50 [5] | IC50 [6] | IC50 [7] | IC50 [8] | Ki [8] | IC50 [9] | IC50 [10] | IC50 [11] | IC50 [12] | IC50 [13] | Ki [13]

NCC1(CC(=O)O)CCCCC1 [GABAPENTIN]
Not Active: IC50 [1] | Ki [1] | IC50 [2] | IC50 [3] | IC50 [4] | Ki [4] | IC50 [5] | IC50 [6] | IC50 [7] | IC50 [8] | Ki [8] | IC50 [9] | IC50 [10] | IC50 [11] | IC50 [12] | IC50 [13] | Ki [13]

CC[N+](CC)(CC)CCOc1cccc(OCC[N+](CC)(CC)CC)c1OCC[N+](CC)(CC)CC.[I-].[I-].[I-] [GALLAMINE TRIETHIODIDE]
Not Active: IC50 [1] | Ki [1] | IC50 [2] | IC50 [3] | IC50 [4] | Ki [4] | IC50 [5] | IC50 [6] | IC50 [7] | IC50 [8] | Ki [8] | IC50 [9] | IC50 [10] | IC50 [11] | IC50 [12] | IC50 [13] | Ki [13]

Nc1nc2c(ncn2COC(CO)CO)c(=O)[nH]1 [GANCICLOVIR]
Not Active: IC50 [1] | Ki [1] | IC50 [2] | IC50 [3] | IC50 [4] | Ki [4] | IC50 [5] | IC50 [6] | IC50 [7] | IC50 [8] | Ki [8] | IC50 [9] | IC50 [10] | IC50 [11] | IC50 [12] | IC50 [13] | Ki [13]

COc1c(N2CCNC(C)C2)c(F)cc2c(=O)c(C(=O)O)cn(C3CC3)c12 (stereo unspecified) [GATIFLOXACIN]
Not Active: IC50 [1] | Ki [1] | IC50 [2] | IC50 [3] | IC50 [4] | Ki [4] | IC50 [5] | IC50 [6] | IC50 [7] | IC50 [8] | Ki [8] | IC50 [9] | IC50 [10] | IC50 [11] | IC50 [12] | IC50 [13] | Ki [13]
